The text below walks through data of paper PMC7155212 (Journal of Enzyme Inhibition and Medicinal Chemistry, 2020).

The nature of assay [1]: In vitro antioxidant activity (DPPH radical scavenging). The settings on record: DPPH free radical scavenging, 30 min at 37 °C, mean ± SD (n = 3). The procedure: The assay provides an assessment of the antioxidant activity due to free radical scavenging by measuring hydrogen atom (or one electron) donating activity. DPPH is a purple stable free radical that is reduced to a yellow-coloured diphenylpicryl hydrazine by an antioxidant. The spectrophotometric assay was carried out as described by the literature method with a slight modification. 100 μL of a sample solution was added to 100 μL of DPPH solution. Following 30 min of incubation at 37 °C and protection from light, the absorbance at 517 nm was determined using a microplate reader. Each group was measured three times in parallel to average. IC50 values were calculated. The percentage of DPPH radical scavenging rate of the target compound is calculated as follows: DPPH free radical scavenging effect (%)=[A0 – (A1−A2)]/A0×100% where A0 is the absorbance of blank group; A1 is the absorbance of sample group; A2 is the absorbance of sample blank group.
In general terms: DPPH is a stable violet radical that fades when it is reduced.

Assay [2] has as its target T1, MAO-B (Rattus norvegicus, UniProt P19643).
T1 construct: The crude enzyme was extracted from the liver of 200–250 g of Wistar rats; from tissue; host or cells: liver of Wistar rats (crude enzyme)
T1 sequence (P19643 1-520): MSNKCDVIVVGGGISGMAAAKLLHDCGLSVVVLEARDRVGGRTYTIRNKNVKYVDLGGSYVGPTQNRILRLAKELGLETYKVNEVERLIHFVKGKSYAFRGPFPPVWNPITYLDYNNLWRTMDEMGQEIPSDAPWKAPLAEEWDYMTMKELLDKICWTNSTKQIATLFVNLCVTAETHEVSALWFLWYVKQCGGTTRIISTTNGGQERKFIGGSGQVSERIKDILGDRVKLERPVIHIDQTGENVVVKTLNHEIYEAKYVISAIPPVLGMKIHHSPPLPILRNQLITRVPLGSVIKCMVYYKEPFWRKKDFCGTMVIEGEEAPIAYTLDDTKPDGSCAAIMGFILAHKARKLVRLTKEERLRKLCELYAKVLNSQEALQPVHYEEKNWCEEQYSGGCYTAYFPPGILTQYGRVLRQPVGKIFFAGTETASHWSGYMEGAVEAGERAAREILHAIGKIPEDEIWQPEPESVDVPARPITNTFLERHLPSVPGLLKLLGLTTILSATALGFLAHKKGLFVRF
The experiment in a line: In vitro MAO inhibitory activity (Holt method, crude enzyme from rat liver). Format: biochemical, Wistar rat. To be noted: rat liver crude enzyme, 4-(trifluoromethyl)benzylamine substrate, mean ± SD (n = 3); read-out: IC50 value MAO-B inhibitory activity. The procedure:
The MAO inhibitory activity of the 3-arylbenzofuranone compounds was determined by the method of Holt et al.[17] with slight modifications. The crude enzyme was extracted from the liver of 200–250 g of Wistar rats according to literature methods[18]^,[19]. The crude enzyme protein content was determined by the Bradford method using a Bradford Protein Assay Kit (Beyotime). The assay was performed in 0.2 M potassium phosphate buffer pH 7.6 on 96-well plates in 240 μl total volume. The chromogenic solution containing 1 mM vanillic acid, 0.5 mM 4-aminoantipyrine, and 4 U/ml horseradish peroxidase in 0.2 M potassium phosphate buffer pH 7.6 was mixed anew for each measurement. 40 μL of enzyme solution and 40 μL of sample solution were added to a 96-well plate. The solution was then incubated at 37 °C for 20 min. 120 μL of the 4-(trifluoromethyl) benzylamine solution and 40 μL of the chromogenic solution were added subsequently and incubated at 37 °C for 90 min. The absorbance was measured at 490 nm using a microplate reader, and the inhibition rate of MAO and the IC50 value of each sample were calculated according to the formula. The control group replaced the sample solution with PBS (0.2 M, pH = 7.6), the positive control replaced the sample with the positive drug, and the blank group replaced the substrate with PBS, and each group was measured three times in parallel to average. Monoamine oxidase inhibitory effect (%) = [(AC – AB) – (AS – ASB )]/(AC – AB)×100% where AC is the absorbance of control group; AB is the absorbance of blank group; AS is the absorbance of sample group; ASB is the absorbance of sample blank group.

In assay [3] the target is BuChE (Equus caballus, UniProt P81908). The experiment in a line: Kinetic characterisation of BuChE inhibition (Lineweaver-Burk). Format: biochemical. The settings on record: Lineweaver-Burk plot, Figure 1B. The method, then:
(§1) To obtain the mechanism of action of 13, reciprocal plots of 1/velocity versus 1/[substrate] were constructed at different concentrations of the substrate […] by using Ellman’s method. Compound 13 was added to the assay solution and preincubated with the enzyme at 37 °C for 5 min, followed by the addition of the substrate. Kinetic characterisation catalysed by enzyme was achieved spectrometrically at 412 nm. A parallel control experiment was carried out without compound 13 in the mixture. Lineweaver–Burk plot was made based on the reaction rate and substrate concentration to determine the type of inhibition of the ChE by the compound.

Assay [4] has as its target AChE (Electrophorus electricus, UniProt O42275). The experiment in a line: Kinetic characterisation of AChE inhibition (Lineweaver-Burk). Format: biochemical. The settings on record: Lineweaver-Burk plot, Figure 1A. The procedure:
as §1

Assay [5] deals with AChE from electric eel (Electrophorus electricus, UniProt O42275). The experiment in a line: biochemical. To be noted: Ellman method, mean ± SD (n = 3), read-out: IC50 value AChE inhibitory activity. Format: biochemical. The procedure: (§2) The anticholinesterase activity of the 3-arylbenzofuranone compounds was determined by the method of Ellman et al.[16] with slight modifications. […] Acetylthiocholine iodide and butyrylthiocholine iodide were used as substrates respectively. 5,5′-Dithiobis(2-nitrobenzoic acid) (DTNB) was used as the chromophoric reagent. To a 96-well plate, 120 µL of phosphate buffer solution (0.1 M, pH = 8.0, PBS), 20 µL of DTNB (3.3 mM in 0.1 M PBS, pH = 8.0) were added sequentially, 20 µL AChE solution (0.2 U/mL in 0.1 M PBS, pH = 8.0), 20 µL of different concentrations of the sample solution, shaken well, and incubated at 37 °C for 5 min. Then, 20 µL of substrate (5 mM in 0.1 M PBS, pH = 8.0) were added, shaken well, and incubated at 37 °C for 20 min. […] BChE inhibitory activity was assessed similarly using butyrylthiocholine iodide as the substrate. The sample solution was set to five concentration gradients and the experiment was repeated three times. […] Cholinesterase inhibitory effect (%)=[A0−(A1−A2)]/A0×100% where A0 is the absorbance of blank group; A1 is the absorbance of sample group; A2 is the absorbance of sample blank group.
Chain of AChE from electric eel (O42275 24-633): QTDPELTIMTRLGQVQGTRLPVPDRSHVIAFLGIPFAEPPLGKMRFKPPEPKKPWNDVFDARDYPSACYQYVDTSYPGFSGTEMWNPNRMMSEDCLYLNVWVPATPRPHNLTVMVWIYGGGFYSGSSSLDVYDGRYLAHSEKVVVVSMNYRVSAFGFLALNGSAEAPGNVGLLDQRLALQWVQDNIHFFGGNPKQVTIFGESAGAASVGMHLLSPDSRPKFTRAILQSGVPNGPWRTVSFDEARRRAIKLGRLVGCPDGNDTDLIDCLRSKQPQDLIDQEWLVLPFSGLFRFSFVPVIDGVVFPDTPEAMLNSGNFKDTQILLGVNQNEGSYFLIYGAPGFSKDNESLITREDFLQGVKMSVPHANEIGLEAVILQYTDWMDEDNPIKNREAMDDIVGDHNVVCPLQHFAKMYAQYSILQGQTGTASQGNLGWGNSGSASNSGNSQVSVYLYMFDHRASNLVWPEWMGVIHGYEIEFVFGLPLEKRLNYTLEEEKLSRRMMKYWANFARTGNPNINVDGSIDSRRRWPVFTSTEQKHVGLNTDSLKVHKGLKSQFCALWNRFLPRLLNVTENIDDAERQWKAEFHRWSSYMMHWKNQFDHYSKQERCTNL

For assay [6], the target named is BChE from equine serum (Equus caballus, UniProt P81908). The experiment in a line: biochemical. Format: biochemical. To be noted: equine serum BChE, Ellman method, mean ± SD (n = 3); read-out: IC50 value BuChE inhibitory activity. The method, then: as §2
Chain of BChE from equine serum (P81908 whole entry): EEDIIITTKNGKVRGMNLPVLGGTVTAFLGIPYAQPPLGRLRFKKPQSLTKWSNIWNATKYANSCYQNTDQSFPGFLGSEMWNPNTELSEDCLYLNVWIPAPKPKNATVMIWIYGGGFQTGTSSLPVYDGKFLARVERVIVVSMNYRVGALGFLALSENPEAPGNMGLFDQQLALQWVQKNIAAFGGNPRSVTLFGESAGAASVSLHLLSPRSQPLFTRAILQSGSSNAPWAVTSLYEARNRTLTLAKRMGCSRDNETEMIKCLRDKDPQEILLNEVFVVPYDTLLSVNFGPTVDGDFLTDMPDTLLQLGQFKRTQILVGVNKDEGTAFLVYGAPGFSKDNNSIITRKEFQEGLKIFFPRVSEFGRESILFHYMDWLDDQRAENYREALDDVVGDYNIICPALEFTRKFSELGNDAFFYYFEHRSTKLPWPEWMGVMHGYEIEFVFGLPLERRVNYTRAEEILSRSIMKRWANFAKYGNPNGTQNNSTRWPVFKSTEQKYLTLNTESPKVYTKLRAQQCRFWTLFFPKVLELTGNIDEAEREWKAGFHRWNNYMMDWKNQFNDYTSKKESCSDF

Chain of AChE (O42275 24-633): as the sequence (O42275 24-633) above
Chain of BuChE (P81908 whole entry): as the sequence (P81908 whole entry) above

One may read the IC50 as the point on the concentration scale where inhibition reaches its midpoint. Turning to `COc1cc2c(cc1O)C(c1ccc(OC)c(OC)c1)C(=O)O2` (stereo not drawn) [Compound 13, 5-Hydroxy-6-methoxy-3–(3′,4′-dimethoxyphenyl)-benzofuranone], the IC50 in assay [1] came to 5.33 ± 0.08 µM; in assay [2] it was 11.2 ± 0.72 µM. For the same compound, in assay [3], the “inhibition mode against BuChE” value is listed as “reversible inhibition”. Besides, in assay [4], the “inhibition mode against AChE” value is “reversible inhibition”.

Take `COc1ccc2c(c1)C(c1cc(OC)c(OC)c(OC)c1)C(=O)O2` (stereo not drawn) [Compound 15, 5-Methoxy-3–(3′,4′,5′-trimethoxyphenyl)-benzofuranone]: the IC50 in assay [1] was 32.6 ± 0.42 µM; in assay [2], 215 ± 2.27 µM; in assay [5] it was 2.54 ± 0.19 µM; in assay [6], more than 200 µM.

As for `COc1ccc(C2C(=O)Oc3c2ccc(OC)c3O)cc1` (stereo not drawn) [Compound 8, 6-Methoxy-7-hydroxy-3–(4′-methoxyphenyl)-benzofuranone], the concentration for half-maximal inhibition (IC50) was 5.96 ± 0.14 µM in assay [1], 40.6 ± 1.92 µM in assay [2], 9.24 ± 0.62 µM in assay [5] and more than 200 µM in assay [6].
